From PubChem BioAssay (NCI)
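Grown in 96-well plates, cells were treated for 48 hours with each compound at five concentrations. Insufficient inhibition: endpoint recorded as highest concentration tested. The concentration for full growth arrest is given as TGI.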

Key:
Experiment in all cases: NCI tumour cell line growth inhibition, 48 h
A549 NSCLC = test system: A549 NSCLC
786-0 renal = test system: 786-0 renal
XF 498 CNS = test system: XF 498 CNS
LOX IMVI melanoma = test system: LOX IMVI melanoma
HCC-2998 colon = test system: HCC-2998 colon
CAKI-1 renal = test system: CAKI-1 renal
SK-MEL-2 melanoma = test system: SK-MEL-2 melanoma
NCI-H226 lung = test system: NCI-H226 lung
OVCAR-4 ovarian = test system: OVCAR-4 ovarian
TK-10 renal = test system: TK-10 renal
HL-60(TB) leukemia = test system: HL-60(TB) leukemia
SK-OV-3 ovarian = test system: SK-OV-3 ovarian
SF-539 CNS = test system: SF-539 CNS
M19-MEL melanoma = test system: M19-MEL melanoma
MOLT-4 leukemia = test system: MOLT-4 leukemia
OVCAR-8 ovarian = test system: OVCAR-8 ovarian
KM20L2 colon = test system: KM20L2 colon
LXFL 529 NSCLC = test system: LXFL 529 NSCLC
SNB-78 CNS = test system: SNB-78 CNS
SF-295 CNS = test system: SF-295 CNS
HOP-92 NSCLC = test system: HOP-92 NSCLC
OVCAR-5 ovarian = test system: OVCAR-5 ovarian
KM12 colon = test system: KM12 colon
K-562 leukemia = test system: K-562 leukemia
OVCAR-3 ovarian = test system: OVCAR-3 ovarian
CCRF-CEM leukemia = test system: CCRF-CEM leukemia
RXF-631 renal = test system: RXF-631 renal
UACC-62 melanoma = test system: UACC-62 melanoma
SN12C renal = test system: SN12C renal
HOP-62 NSCLC = test system: HOP-62 NSCLC
SW-620 colon = test system: SW-620 colon
COLO 205 colon = test system: COLO 205 colon
SK-MEL-5 melanoma = test system: SK-MEL-5 melanoma
UACC-257 melanoma = test system: UACC-257 melanoma
SNB-75 CNS = test system: SNB-75 CNS
UO-31 renal = test system: UO-31 renal
SK-MEL-28 melanoma = test system: SK-MEL-28 melanoma
HCT-15 colon = test system: HCT-15 colon
HCT-116 colon = test system: HCT-116 colon
DMS 114 small cell lung = test system: DMS 114 small cell lung
U251 CNS = test system: U251 CNS
SF-268 CNS = test system: SF-268 CNS
NCI-H522 lung = test system: NCI-H522 lung
SNB-19 CNS = test system: SNB-19 CNS
NCI-H23 lung = test system: NCI-H23 lung
NCI-H460 lung = test system: NCI-H460 lung
HT29 colon = test system: HT29 colon
RPMI-8226 leukemia = test system: RPMI-8226 leukemia
M14 melanoma = test system: M14 melanoma
EKVX NSCLC = test system: EKVX NSCLC
IGROV1 ovarian = test system: IGROV1 ovarian
ACHN renal = test system: ACHN renal
DLD-1 colon = test system: DLD-1 colon
MALME-3M melanoma = test system: MALME-3M melanoma
HOP-18 NSCLC = test system: HOP-18 NSCLC
RXF 393 renal = test system: RXF 393 renal
SR leukemia = test system: SR leukemia
DMS 273 small cell lung = test system: DMS 273 small cell lung
A498 renal = test system: A498 renal

C1=Cc2nc1c(-c1ccccc1)c1ccc([n-]1)c(-c1ccccc1)c1nc(c(-c3ccccc3)c3ccc([n-]3)c2-c2ccccc2)C=C1.[Zn+2]
TGI (A549 NSCLC): > 100 µM
TGI (786-0 renal): > 100 µM
TGI (XF 498 CNS): > 100 µM
TGI (LOX IMVI melanoma): > 100 µM
TGI (HCC-2998 colon): > 100 µM
TGI (CAKI-1 renal): > 100 µM
TGI (SK-MEL-2 melanoma): > 100 µM
TGI (NCI-H226 lung): > 100 µM
TGI (OVCAR-4 ovarian): > 100 µM
TGI (TK-10 renal): > 100 µM
TGI (HL-60(TB) leukemia): > 100 µM
TGI (SK-OV-3 ovarian): > 100 µM
TGI (SF-539 CNS): > 100 µM
TGI (M19-MEL melanoma): > 100 µM
TGI (MOLT-4 leukemia): > 100 µM
TGI (OVCAR-8 ovarian): > 100 µM
TGI (KM20L2 colon): > 100 µM
TGI (LXFL 529 NSCLC): > 100 µM
TGI (SNB-78 CNS): > 100 µM
TGI (SF-295 CNS): > 100 µM
TGI (HOP-92 NSCLC): > 100 µM
TGI (OVCAR-5 ovarian): > 100 µM
TGI (KM12 colon): > 100 µM
TGI (K-562 leukemia): > 100 µM
TGI (OVCAR-3 ovarian): > 100 µM
TGI (CCRF-CEM leukemia): > 100 µM
TGI (RXF-631 renal): > 100 µM
TGI (UACC-62 melanoma): > 100 µM
TGI (SN12C renal): > 100 µM
TGI (HOP-62 NSCLC): > 100 µM
TGI (SW-620 colon): > 100 µM
TGI (COLO 205 colon): > 100 µM
TGI (SK-MEL-5 melanoma): > 100 µM
TGI (UACC-257 melanoma): > 100 µM
TGI (SNB-75 CNS): > 100 µM
TGI (UO-31 renal): > 100 µM
TGI (SK-MEL-28 melanoma): > 100 µM
TGI (HCT-15 colon): > 100 µM
TGI (HCT-116 colon): > 100 µM
TGI (DMS 114 small cell lung): > 100 µM
TGI (U251 CNS): > 100 µM
TGI (SF-268 CNS): > 100 µM
TGI (NCI-H522 lung): > 100 µM
TGI (SNB-19 CNS): > 100 µM
TGI (NCI-H23 lung): > 100 µM
TGI (NCI-H460 lung): > 100 µM
TGI (HT29 colon): > 100 µM
TGI (RPMI-8226 leukemia): > 100 µM
TGI (M14 melanoma): > 100 µM
TGI (EKVX NSCLC): > 100 µM
TGI (IGROV1 ovarian): > 100 µM
TGI (ACHN renal): > 100 µM
TGI (DLD-1 colon): > 100 µM
TGI (MALME-3M melanoma): > 100 µM

CCOC(=O)C(=O)Nc1ccc([N+](=O)[O-])cc1C#N
TGI (A549 NSCLC): > 100 µM
TGI (786-0 renal): > 100 µM
TGI (XF 498 CNS): > 100 µM
TGI (LOX IMVI melanoma): > 100 µM
TGI (HCC-2998 colon): > 100 µM
TGI (CAKI-1 renal): > 100 µM
TGI (SK-MEL-2 melanoma): > 100 µM
TGI (NCI-H226 lung): > 100 µM
TGI (OVCAR-4 ovarian): > 100 µM
TGI (TK-10 renal): > 100 µM
TGI (HL-60(TB) leukemia): > 100 µM
TGI (SK-OV-3 ovarian): > 100 µM
TGI (SF-539 CNS): > 100 µM
TGI (M19-MEL melanoma): > 100 µM
TGI (MOLT-4 leukemia): > 100 µM
TGI (OVCAR-8 ovarian): > 100 µM
TGI (LXFL 529 NSCLC): > 100 µM
TGI (SF-295 CNS): > 100 µM
TGI (HOP-92 NSCLC): > 100 µM
TGI (OVCAR-5 ovarian): > 100 µM
TGI (KM12 colon): > 100 µM
TGI (K-562 leukemia): > 100 µM
TGI (OVCAR-3 ovarian): > 100 µM
TGI (CCRF-CEM leukemia): > 100 µM
TGI (RXF-631 renal): > 100 µM
TGI (HOP-18 NSCLC): > 100 µM
TGI (UACC-62 melanoma): > 100 µM
TGI (SN12C renal): > 100 µM
TGI (HOP-62 NSCLC): > 100 µM
TGI (SW-620 colon): > 100 µM
TGI (SK-MEL-5 melanoma): > 100 µM
TGI (UACC-257 melanoma): > 100 µM
TGI (UO-31 renal): > 100 µM
TGI (SK-MEL-28 melanoma): > 100 µM
TGI (HCT-15 colon): > 100 µM
TGI (HCT-116 colon): > 100 µM
TGI (RXF 393 renal): > 100 µM
TGI (DMS 114 small cell lung): > 100 µM
TGI (SR leukemia): > 100 µM
TGI (U251 CNS): > 100 µM
TGI (SF-268 CNS): > 100 µM
TGI (NCI-H522 lung): > 100 µM
TGI (SNB-19 CNS): > 100 µM
TGI (NCI-H23 lung): > 100 µM
TGI (NCI-H460 lung): > 100 µM
TGI (HT29 colon): > 100 µM
TGI (RPMI-8226 leukemia): > 100 µM
TGI (M14 melanoma): > 100 µM
TGI (EKVX NSCLC): > 100 µM
TGI (IGROV1 ovarian): > 100 µM
TGI (ACHN renal): > 100 µM
TGI (DLD-1 colon): > 100 µM
TGI (MALME-3M melanoma): > 100 µM

O=C1OC(c2ccccc2)(c2ccccc2)CC1CN1CCOCC1 (stereo not drawn)
TGI (A549 NSCLC): 24.5 µM
TGI (786-0 renal): 30.4 µM
TGI (LOX IMVI melanoma): 28 µM
TGI (HCC-2998 colon): 31.4 µM
TGI (SK-MEL-2 melanoma): 36.5 µM
TGI (OVCAR-4 ovarian): 40.9 µM
TGI (TK-10 renal): 31.6 µM
TGI (HL-60(TB) leukemia): 28.3 µM
TGI (SK-OV-3 ovarian): 60.6 µM
TGI (SF-539 CNS): 32.6 µM
TGI (M19-MEL melanoma): 31 µM
TGI (MOLT-4 leukemia): 65.4 µM
TGI (OVCAR-8 ovarian): > 100 µM
TGI (KM20L2 colon): 36.6 µM
TGI (LXFL 529 NSCLC): 26.9 µM
TGI (OVCAR-5 ovarian): 67.5 µM
TGI (KM12 colon): 30.8 µM
TGI (DMS 273 small cell lung): > 100 µM
TGI (K-562 leukemia): 78.7 µM
TGI (OVCAR-3 ovarian): 28.9 µM
TGI (CCRF-CEM leukemia): 9.44 µM
TGI (RXF-631 renal): 43.8 µM
TGI (HOP-18 NSCLC): 27.7 µM
TGI (UACC-62 melanoma): > 100 µM
TGI (SN12C renal): 25.1 µM
TGI (HOP-62 NSCLC): > 100 µM
TGI (SW-620 colon): 18 µM
TGI (COLO 205 colon): 18.4 µM
TGI (SK-MEL-5 melanoma): > 100 µM
TGI (UACC-257 melanoma): 20.9 µM
TGI (SNB-75 CNS): 49.1 µM
TGI (UO-31 renal): 99.4 µM
TGI (SK-MEL-28 melanoma): 32.9 µM
TGI (HCT-15 colon): 29.6 µM
TGI (HCT-116 colon): 25.3 µM
TGI (DMS 114 small cell lung): 32.6 µM
TGI (SR leukemia): 8.43 µM
TGI (U251 CNS): 49.7 µM
TGI (SF-268 CNS): 84 µM
TGI (NCI-H522 lung): 22.8 µM
TGI (SNB-19 CNS): > 100 µM
TGI (NCI-H23 lung): 43.9 µM
TGI (NCI-H460 lung): > 100 µM
TGI (HT29 colon): 15.1 µM
TGI (M14 melanoma): 31.4 µM
TGI (EKVX NSCLC): > 100 µM
TGI (IGROV1 ovarian): > 100 µM
TGI (A498 renal): > 100 µM
TGI (ACHN renal): 32 µM
TGI (DLD-1 colon): 31.8 µM
TGI (MALME-3M melanoma): 26.6 µM
